# How the values were obtained:
# [1] = test system: phospho-ERK in MIA PaCa2 or H358 cells; experiment: Phospho-ERK assay (AlphaLisa); type: cell-based; conditions: 1.5 h, MIA PaCa2 or H358 cells, compound incubated 1.5 hours; read-out: IC50 (p-ERK)
# SHP2 (full length) = biological target: T1, SHP2 (full length) (Homo sapiens, UniProt Q06124); experiment: Phosphatase assay (PTPase assay) with DiFMUP substrate; type: biochemical; conditions: SHP2 activated with SHP2 activating peptide; DiFMUP 80 μM, 2 hours; fluorescence; read-out: IC50 (PTPase aS say)
# T1 construct: SHP2 (full length, diluted to 100 pM final concentration in reaction buffer, BPS bioscience, US); purchased BPS bioscience, US
# T1 sequence (Q06124 1-593): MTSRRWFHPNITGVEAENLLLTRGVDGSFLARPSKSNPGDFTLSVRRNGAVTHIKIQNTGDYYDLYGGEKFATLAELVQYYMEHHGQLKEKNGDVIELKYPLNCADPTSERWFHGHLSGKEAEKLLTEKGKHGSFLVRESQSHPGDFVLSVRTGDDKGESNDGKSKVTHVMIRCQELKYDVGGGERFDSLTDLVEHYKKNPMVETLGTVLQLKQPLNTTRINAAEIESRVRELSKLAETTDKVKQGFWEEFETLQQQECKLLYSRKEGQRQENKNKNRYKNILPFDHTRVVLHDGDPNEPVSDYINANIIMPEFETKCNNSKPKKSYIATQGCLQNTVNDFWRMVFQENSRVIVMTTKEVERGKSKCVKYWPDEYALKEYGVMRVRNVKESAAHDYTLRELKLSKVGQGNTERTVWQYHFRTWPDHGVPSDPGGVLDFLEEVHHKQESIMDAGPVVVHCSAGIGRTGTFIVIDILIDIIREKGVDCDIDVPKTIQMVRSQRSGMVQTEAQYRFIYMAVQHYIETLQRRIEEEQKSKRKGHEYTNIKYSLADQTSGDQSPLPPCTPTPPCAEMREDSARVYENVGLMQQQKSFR
IC50 [1] [nM],IC50 (SHP2 (full length)) [nM],Compound
45 to 1500,< 3,"CC(c1ccccc1)n1cnc2ccc(Sc3cnc(N4CCC5(CC4)CO[C@@H](C)[C@H]5N)cn3)c(Cl)c2c1=O (stereo partly drawn) [Example 32, 6-((5-((3S,4S)-4-amino-3-methyl-2-oxa-8-azaspiro[4.5]decan-8-yl)pyrazin-2-yl)thio)-5-chloro-3-(1-phenylethyl)quinazolin-4(3H)-one]"
< 45,< 3,"CC(C)OCCn1cnc2ccc(Sc3cnc(N4CCC5(CC4)CO[C@@H](C)[C@H]5N)cn3)c(Cl)c2c1=O [Example 116, 6-((5-(3S,4S)-4-amino-3-methyl-2-oxa-8-azaspiro[4,5]decan-8-yl)pyrazin-2-yl)thio)-5-chloro-(3-(2-isopropoxyethyl)quinazolin-4(3H)-one]"
45 to 1500,3 to 100,"C[C@@H]1OCC2(CCN(c3cnc(Sc4ccc5nc[nH]c(=O)c5c4Cl)cn3)CC2)[C@@H]1N [Example 5, 6-((5-((3S,4S)-4-amino-3-methyl-2-oxa-8-azaspiro[4.5]decan-8-yl)pyrazin-2-yl)thio)-5-chloroquinazolin-4(3H)-one]"
> 1500,3 to 100,"Cc1nc2ccc(Sc3cnc(N4CCC(C)(N)CC4)cn3)c(Cl)c2s1 [Example 24, 1-(5-((7-chloro-2-methylbenzo[d]thiazol-6-yl)thio)pyrazin-2-yl)-4-methylpiperidin-4-amine]"
< 45,< 3,"C[C@@H]1OCC2(CCN(c3cnc(Sc4ccc5c(c4Cl)S(=O)(=O)N(Cc4ccccc4)C=N5)cn3)CC2)[C@@H]1N [Example 124, 7-((5-((3S,4S)-4-amino-3-methyl-2-oxa-8-azaspiro[4,5]decan-8-yl)pyrazin-2-yl)thio)-2-benzyl-8-chloro-2H-benzo[e][1,2,4]thiadiazine 1,1-dioxide]"
< 45,< 3,"COCCn1cnc2ccc(Sc3cnc(N4CCC5(CC4)Cc4scnc4[C@H]5N)cn3)c(Cl)c2c1=O [Example 151, 6-[5-[(4S)-4-aminospiro[4,6-dihydrocyclopenta[d]thiazole-5,4′-piperidin]-1′-yl]pyrazin-2-yl]sulfanyl-5-chloro-3-(2-methoxyethyl)quinazolin-4-one]"
< 45,< 3,"C[C@@H]1OCC2(CCN(c3cnc(Sc4ccc5ncn(Cc6nccs6)c(=O)c5c4Cl)cn3)CC2)[C@@H]1N [Example 35, 6-((5-((3S,4S)-4-amino-3-methyl-2-oxa-8-azaspiro[4.5]decan-8-yl)pyrazin-2-yl)thio)-5-chloro-3-(thiazol-2-ylmethyl)quinazolin-4(3H)-one]"
< 45,< 3,"COCCn1cnc2ccc(Sc3cnc(N4CCC5(CC4)Cc4ccc(OC)cc4[C@H]5N)cn3)c(Cl)c2c1=O [Example 158, 6-[5-[(1S)-1-amino-6-methoxy-spiro[indane-2,4′-piperidin]-1′-yl]pyrazin-2-yl]sulfanyl-5-chloro-3-(2-methoxyethyl)quinazolin-4-one]"
> 1500,> 100,"Cn1c(N2CCN(CC(N)c3ccccc3)CC2)nc(N)c(Sc2cccc(Cl)c2Cl)c1=O (centres unmarked) [Example 190, 6-amino-2-(4-(2-amino-2-phenylethyl)piperazin-1-yl)-5-((2,3-dichlorophenyl)thio)-3-methylpyrimidin-4(3H)-one]"
< 45,< 3,"C[C@@H]1OCC2(CCN(c3cnc(Sc4ccc5ncn(Cc6cnccn6)c(=O)c5c4Cl)cn3)CC2)[C@@H]1N [Example 44, 6-((5-((3S,4S)-4-amino-3-methyl-2-oxa-8-azaspiro[4.5]decan-8-yl)pyrazin-2-yl)thio)-5-chloro-3-(pyrazin-2-ylmethyl)quinazolin-4(3H)-one]"
45 to 1500,3 to 100,"C[C@@H]1OCC2(CCN(c3cnc(Sc4ccnc(C(=O)NCc5cccnc5)c4Cl)cn3)CC2)[C@@H]1N [Example 87, 4-((5-((3S,4S)-4-amino-3-methyl-2-oxa-8-azaspiro[4.5]decan-8-yl)pyrazin-2-yl)thio)-3-chloro-N-(pyridin-3-ylmethyl)picolinamide]"
< 45,< 3,"N[C@H]1c2ccccc2CC12CCN(c1cnc(Sc3ccc4ncn(CC5CCOC5)c(=O)c4c3Cl)cn1)CC2 (stereo partly drawn) [Example 104, 6-((5-((R)-1-amino-1,3-dihydrospiro(indene-2,4′-piperidin]-1′-yl]pyrazin-2-yl]thio)-5-chloro-3-((tetrahydrofuran-3-yl)methyl)quinazolin-4(3H)-one]"
< 45,3 to 100,COCCn1cnc2ccc(Sc3cnc(N4CCC5(CC4)CO[C@@H](C)[C@H]5N)cn3)c(F)c2c1=O [Example 156]
45 to 1500,3 to 100,"C[C@@H]1OCC2(CCN(c3cnc(Sc4ccc5nc(Cc6cccnc6)[nH]c5c4Cl)cn3)CC2)[C@@H]1N [Example 137, (3S,4S)-8-(5-((7-chloro-2-(pyridin-3-ylmethyl)-1H-benzo[d]imidazol-6-yl)thio)pyrazin-2-yl)-3-methyl-2-oxa-8-azaspiro[4.5]decan-4-amine]"
< 45,< 3,"CC(C)(O)Cn1cnc2ccc(Sc3ncc(N4CCC5(CC4)Cc4ncsc4[C@H]5N)nc3N)c(Cl)c2c1=O [Example 166, (S)-6-((3-amino-5-(6-amino-4,6-dihydrospiro[cyclopenta[d]thiazole-5,4′-piperidin]-1′-yl)pyrazin-2-yl)thio)-5-chloro-3-(2-hydroxy-2-methylpropyl)quinazolin-4(3H)-one]"
< 45,< 3,"C[C@@H]1OCC2(CCN(c3cnc(Sc4ccc5ncn(CC(C)(C)O)c(=O)c5c4Cl)cn3)CC2)[C@@H]1N [Example 81, 6-((5-((3S,4S)-4-amino-3-methyl-2-oxa-8-azaspiro[4.5]decan-8-yl)pyrazin-2-yl)thio)-5-chloro-3-(2-hydroxy-2-methylpropyl)quinazolin-4(3H)-one]"
< 45,< 3,"COCCn1cnc2ccc(Sc3cnc(N4CCC5(CC4)Cc4ncsc4[C@H]5N)cn3)c(Cl)c2c1=O [Example 144, 6-[5-[(6S)-6-aminospiro[4,6-dihydrocyclopenta[d]thiazole-5,4′-piperidin]-1′-yl]pyrazin-2-yl]sulfanyl-5-chloro-3-(2-methoxyethyl)quinazolin-4-one]"
< 45,< 3,"NC(=O)c1nc(Sc2ccc3ncn(CC4CCOCC4)c(=O)c3c2Cl)cnc1N1CCC2(CC1)Cc1ncsc1[C@H]2N [Example 174, (S)-3-(6-amino-4,6-dihydrospiro[cyclopenta[d]thiazole-5,4′-piperidin]-1′-yl)-6-((5-chloro-4-oxo-3-((tetrahydro-2H-pyran-4-yl)methyl)-3,4-dihydroquinazolin-6-yl)thio)pyrazine-2-carboxamide]"
< 45,< 3,"COCCn1cnc2ccc(Sc3cnc(N4CCC5(CC4)Cc4scnc4[C@H]5N)c(CO)n3)c(Cl)c2c1=O [Example 170, (S)-6-((5-(4-amino-4,6-dihydrospiro[yclopenta[d]thiazole-5,4′-piperidin]-1′-yl)-6-(hydroxymethyl)pyrazin-2-yl)thio)-5-chloro-3-(2-methoxyethyl)quinazolin-4(3H)-one]"
> 1500,> 100,Cn1c(N2CCN[C@@H](CN)C2)nc(N)c(Sc2cccc(Cl)c2Cl)c1=O [Example 196]
< 45,< 3,"C[C@@H]1OCC2(CCN(c3cnc(Sc4ccc5ncn(Cc6ccc7cc[nH]c7n6)c(=O)c5c4Cl)cn3)CC2)[C@@H]1N [Example 42, 3-((1H-pyrrolo[2,3-b]pyridin-6-yl)methyl)-6-((5-((3S,4S)-4-amino-3-methyl-2-oxa-8-azaspiro[4.5]decan-8-yl)pyrazin-2-yl)thio)-5-chloroquinazolin-4(3H)-one]"
> 1500,> 100,"CC(N)CN1CCN(c2nc(N)c(Sc3cccc(Cl)c3Cl)c(=O)n2C)CC1 (centres unmarked) [Example 202, 6-amino-2-(4-(2-aminopropyl)piperazin-1-yl)-5-((2,3-dichlorophenyl)thio)-3-methylpyrimidin-4(3H)-one]"
> 1500,> 100,Cn1c(N2CCN(CCN)CC2)nc(N)c(-c2cccc(Cl)c2Cl)c1=O [Example 195]
45 to 1500,3 to 100,"C[C@@H]1OCC2(CCN(c3cnc(Sc4ccc5ncn(CCN(C)C)c(=O)c5c4Cl)cn3)CC2)[C@@H]1N [Example 67, 6-((5-((3S,4S)-4-amino-3-methyl-2-oxa-8-azaspiro[4.5]decan-8-yl)pyrazin-2-yl)thio)-5-chloro-3-(2-(dimethylamino)ethyl)quinazolin-4(3H)-one]"
< 45,< 3,"CC(C)(O)Cn1cnc2ccc(Sc3cnc(N4CCC5(CC4)Cc4ncccc4[C@@H]5N)cn3)c(Cl)c2c1=O [Example 159, 6-[5-[(5R)-5-aminospiro[5,7-dihydrocyclopenta[b]pyridine-6,4′-piperidin]-1′-yl]pyrazin-2-yl]sulfanyl-5-chloro-3-(2-hydroxy-2-methylpropyl)quinazolin-4-one]"

# Reference: patent publication US12029739B2, “SHP2 inhibitor and use thereof” (KANAPH THERAPEUTICS INC., priority 2021, dated 2024)
